Molecular target: HDM2 (residues 17 to 125) (Homo sapiens (Human), UniProt Q00987)
Assay: HDM2 FRET assay (inhibition of p53 peptide binding to HDM2)
Details: read-out: FRET IC50; 0.5 nM HDM2, 3 nM FITC peptide, two hour incubation; values rounded to the nearest integer
Source text: Methods: An HDM2 FRET assay was developed to assess the compounds' inhibitory activity towards binding of p53 protein. […] Ratio of em520/em495 was used to calculate % inhibition and to obtain IC50 with 4-parameter logistic equation.
Concentration of compound was plotted against em520/Cem495 ratio signal. To generate IC50 values, the dose-response curves were fitted to a standard sigmoidal curve and IC50 values were derived by nonlinear regression analysis.

Sequence of HDM2 (residues 17 to 125) (Q00987 17-125): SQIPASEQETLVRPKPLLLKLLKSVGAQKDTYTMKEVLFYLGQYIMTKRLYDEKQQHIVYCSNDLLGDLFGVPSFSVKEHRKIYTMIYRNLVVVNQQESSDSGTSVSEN

`C[C@H]1CC[C@H](Cn2c(N3CCC[C@H]3c3nccs3)nc3cc(-c4noc(=O)[nH]4)nc(-c4cncc(Cl)c4)c32)CC1` [Example 3.81, 3-{4-(5-chloropyridin-3-yl)-3-[(trans-4-methylcyclohexyl)methyl]-2-[(2S)-2-(1,3-thiazol-2-yl)pyrrolidin-1-yl]-3H-imidazo[4,5-c]pyridin-6-yl}-1,2,4-oxadiazol-5(4H)-one] was tested, and the IC50 was under 1 nM.
